# Patent US6465221B1, “Method of producing a taxane-type diterpene” (Mitsui Chemicals, Inc., priority 1994, dated 2002)
# Tests used:
# Type in all cases: cell-based
# [1] = system: cultured cells of Taxus baccata LINN; assay: Taxus baccata cell culture with coronatines
# Description: A part of stem of Taxus baccata LINN which had been previously sterilized with 2% antiformin solution or 70% ethanol solution or the like, was placed on solid Woody Plant Medium (containing gelan gum of 0.25% by weight) to which naphthalenacetic acid had been added to give the concentration of 10^−5 M, and static culture was carried out at 25 ° C. in a dark place to provide callus of Taxus baccata LINN. One gram (fresh weight) of the callus was inoculated to an Erlenmeyer flask containing 20 ml of liquid Woody Plant Medium to which the above-mentioned component was added to give the same concentration and shake culture was carried out with a rotary shaker (amplification of 25 mm, 120 rpm) and the callus was subcultured in every 21 days to accelerate the growth rate thereof.
# One gram (fresh weight) of the cultured cells thus obtained was inoculated to an Erlenmeyer flask containing 20 ml of liquid Woody Plant Medium to which the above-mentioned component was added to give the same concentration, and shake culture was carried out at 25° C. for 14 days. On the 14th day after starting the culture, 50 μl of coronatine [formula (IV)] was added as coronatines to the culture medium to give the final concentration of 0.001-1000 μM and the culture was further carried out for another 7 days.
# After completing the culture, cultured cells of Taxus baccata LINN were harvested by filtration and lyophilized, then the dry weight was measured to obtain the yeild of the cultured cells per liter of the liquid medium.
# [2] = system: cultured cells of Taxus baccata LINN; assay: Taxus baccata cell culture with cyclic polysaccharides and methyl ester of jasmonic acid
# Description: […] After completing the culture, cultured cells of Taxus baccata LINN were harvested by filtration and lyophilized, then the dry weight was measured to obtain the yeild thereof per liter of the liquid medium.
# [3] = system: cultured cells of Taxus media; assay: Taxus media cell culture with derivatives of jasmonic acids
# Description: A part of germ of Taxus media which had been previously sterilized with 2% antiformin solution or 70% ethanol solution or the like, was placed on solid Woody Plant Medium (containing gelan gum of 0.25% by weight) to which naphthalenacetic acid had been added to give the concentration of 10^−5 M, and static culture was carried out at 25° C. in a dark place to provide callus of Taxus media. One gram (fresh weight) of the callus was inoculated to an Erlenmeyer flask containing 20 ml of liquid Woody Plant Medium to which above-mentioned component was added to give the same concentration, the and shake culture was carried out with a rotary shaker (amplification of 25 mm, 100 rpm) and the callus was subcultured in every 14 days to accelerate the growth rate thereof.
# Two grams (fresh weight) of the cultured cells thus obtained was inoculated to an Erlenmeyer flask containing 20 ml of liquid Woody Plant […], and the culture was further carried out for another 14 days.
# After completing the culture, cultured cells of Taxus media were harvested by filtration and lyophilized, then the dry weight was measured to obtain the yield of the cultured cells per liter of the liquid medium.
# [4] = system: cultured cells of Taxus baccata LINN; assay: Taxus baccata cell culture with fatty acids or natural oil; settings: added fatty acid 100 μM; 14 days
# Description: One gram (fresh weight) of the callus was inoculated to an Erlenmeyer flask containing 20 ml of liquid Woody Plant Medium and shake culture was carried out with a rotary shaker (amplification of 25 mm, 100 rpm) and the callus was subcultured in every 21 days to accelerate the growth rate thereof.
# [5] = concentration of coronatines 1 μM
# [6] = methyl ester of jasmonic acid 100 μM, β-cyclodextrin 0 mM
# [7] = concentration of derivative of jasmonic acids 100 μM
# [8] = cyclic polysaccharide 10 mM + methyl ester of jasmonic acid 100 μM
# [9] = concentration of derivative of jasmonic acids 0.001 μM
# [10] = concentration of derivative of jasmonic acids 0.01 μM
# [11] = concentration of derivative of jasmonic acids 0.1 μM
# [12] = concentration of derivative of jasmonic acids 1 μM
# [13] = concentration of derivative of jasmonic acids 10 μM
# [14] = concentration of derivative of jasmonic acids 1000 μM
# [15] = concentration of coronatines 10 μM
molecule,measurement,setting,value
"CC[C@H]1C=C(C(=O)N[C@@]2(C(=O)OC)C[C@@H]2CC)[C@H]2CCC(=O)[C@H]2C1 [Example 9, methyl ester of coronatine]",yield of baccatin III,[1]; [5],4.6 mg/L
same,yield of cephalomannine,[1]; [5],6.6 mg/L
same,yield of cultured cells,[1]; [5],19.5 g/L
same,yield of taxol,[1]; [5],11.3 mg/L
"CC/C=C\CC1C(=O)CCC1CC(=O)OC (centres unmarked) [Reference Example 1, methyl jasmonate, reference compound]",yield of baccatin III,[2]; [6],49.7 mg/L
same,yield of cephalomannine,[2]; [6],7.3 mg/L
same,yield of cultured cells,[2]; [6],15.4 g/L
same,yield of taxol,[2]; [6],25.9 mg/L
same,yield of cultured cells,[3]; [7],16.8 g/L
same,"yield of taxane-type diterpenes, baccatin III",[3]; [7],12.1 mg/L
same,"yield of taxane-type diterpenes, cephalomannine",[3]; [7],4.2 mg/L
same,"yield of taxane-type diterpenes, taxol",[3]; [7],48.0 mg/L
"CCCCCCCC/C=C\CCCCCCCC(=O)O [Example 27, oleic acid]",yield of cells,[4],20 g/L
same,"yield of taxane-type diterpenes, baccatin III",[4],2 mg/L
same,"yield of taxane-type diterpenes, cephalomannine",[4],4 mg/L
same,"yield of taxane-type diterpenes, taxol",[4],9 mg/L
CC/C=C\CC1/C(=N\OC)CCC1CC(=O)OC (centres unmarked) [Example 33],yield of cultured cells,[3]; [7],16.1 g/L
same,"yield of taxane-type diterpenes, baccatin III",[3]; [7],18.0 mg/L
same,"yield of taxane-type diterpenes, cephalomannine",[3]; [7],5.2 mg/L
same,"yield of taxane-type diterpenes, taxol",[3]; [7],65.3 mg/L
"CCC1C=C(C(=O)NC(C(=O)O)C(C)C)C2CCC(=O)C2C1 (centres unmarked) [Example 8, N-coronafacoylvaline]",yield of baccatin III,[1]; [5],25.0 mg/L
same,yield of cephalomannine,[1]; [5],9.2 mg/L
same,yield of cultured cells,[1]; [5],18.1 g/L
same,yield of taxol,[1]; [5],51.1 mg/L
"OC[C@H]1O[C@@H]2O[C@H]3[C@H](O)[C@@H](O)[C@@H](O[C@H]4[C@H](O)[C@@H](O)[C@@H](O[C@H]5[C@H](O)[C@@H](O)[C@@H](O[C@H]6[C@H](O)[C@@H](O)[C@@H](O[C@H]7[C@H](O)[C@@H](O)[C@@H](O[C@H]8[C@H](O)[C@@H](O)[C@@H](O[C@H]9[C@H](O)[C@@H](O)[C@@H](O[C@H]1[C@H](O)[C@H]2O)O[C@@H]9CO)O[C@@H]8CO)O[C@@H]7CO)O[C@@H]6CO)O[C@@H]5CO)O[C@@H]4CO)O[C@@H]3CO [Example 24, γ-cyclodextrin]",yield of baccatin III,[2]; [8],85.2 mg/L
same,yield of cephalomannine,[2]; [8],8.5 mg/L
same,yield of cultured cells,[2]; [8],17.5 g/L
same,yield of taxol,[2]; [8],45.2 mg/L
CC/C=C\CC1C(=NS(N)(=O)=O)CCC1CC(=O)OC (centres unmarked) [Example 39],yield of cultured cells,[3]; [7],17.1 g/L
same,"yield of taxane-type diterpenes, baccatin III",[3]; [7],19.0 mg/L
same,"yield of taxane-type diterpenes, cephalomannine",[3]; [7],7.5 mg/L
same,"yield of taxane-type diterpenes, taxol",[3]; [7],85.0 mg/L
CC/C=C\CC1C(CC(=O)OC)CCC1NO (centres unmarked) [Example 40],yield of cultured cells,[3]; [7],16.2 g/L
same,"yield of taxane-type diterpenes, baccatin III",[3]; [7],14.2 mg/L
same,"yield of taxane-type diterpenes, cephalomannine",[3]; [7],5.5 mg/L
same,"yield of taxane-type diterpenes, taxol",[3]; [7],73.3 mg/L
"CCCCC/C=C\C/C=C\C/C=C\C/C=C\CCCC(=O)O [Example 29, arachidonic acid]",yield of cells,[4],20 g/L
same,"yield of taxane-type diterpenes, baccatin III",[4],2 mg/L
same,"yield of taxane-type diterpenes, cephalomannine",[4],3 mg/L
same,"yield of taxane-type diterpenes, taxol",[4],6 mg/L
"CCCCC/C=C\C/C=C\CCCCCCCC(=O)O [Example 28, linolic acid]",yield of cells,[4],20 g/L
same,"yield of taxane-type diterpenes, baccatin III",[4],2 mg/L
same,"yield of taxane-type diterpenes, cephalomannine",[4],5 mg/L
same,"yield of taxane-type diterpenes, taxol",[4],7 mg/L
CC/C=C\CC1C(=NO)CCC1CC(=O)OC (centres unmarked) [Example 32],yield of cultured cells,[3]; [9],22.0 g/L
same,"yield of taxane-type diterpenes, baccatin III",[3]; [9],6.7 mg/L
same,"yield of taxane-type diterpenes, cephalomannine",[3]; [9],3.2 mg/L
same,"yield of taxane-type diterpenes, taxol",[3]; [9],16.7 mg/L
same,yield of cultured cells,[3]; [10],21.1 g/L
same,"yield of taxane-type diterpenes, baccatin III",[3]; [10],6.8 mg/L
same,"yield of taxane-type diterpenes, cephalomannine",[3]; [10],3.6 mg/L
same,"yield of taxane-type diterpenes, taxol",[3]; [10],20.2 mg/L
same,yield of cultured cells,[3]; [11],20.2 g/L
same,"yield of taxane-type diterpenes, baccatin III",[3]; [11],7.5 mg/L
same,"yield of taxane-type diterpenes, cephalomannine",[3]; [11],4.0 mg/L
same,"yield of taxane-type diterpenes, taxol",[3]; [11],24.1 mg/L
same,yield of cultured cells,[3]; [12],19.5 g/L
same,"yield of taxane-type diterpenes, baccatin III",[3]; [12],8.5 mg/L
same,"yield of taxane-type diterpenes, cephalomannine",[3]; [12],4.2 mg/L
same,"yield of taxane-type diterpenes, taxol",[3]; [12],34.5 mg/L
same,yield of cultured cells,[3]; [13],18.3 g/L
same,"yield of taxane-type diterpenes, baccatin III",[3]; [13],13.5 mg/L
same,"yield of taxane-type diterpenes, cephalomannine",[3]; [13],6.3 mg/L
same,"yield of taxane-type diterpenes, taxol",[3]; [13],56.2 mg/L
same,yield of cultured cells,[3]; [7],16.4 g/L
same,"yield of taxane-type diterpenes, baccatin III",[3]; [7],20.1 mg/L
same,"yield of taxane-type diterpenes, cephalomannine",[3]; [7],9.2 mg/L
same,"yield of taxane-type diterpenes, taxol",[3]; [7],78.0 mg/L
same,yield of cultured cells,[3]; [14],14.0 g/L
same,"yield of taxane-type diterpenes, baccatin III",[3]; [14],9.3 mg/L
same,"yield of taxane-type diterpenes, cephalomannine",[3]; [14],3.5 mg/L
same,"yield of taxane-type diterpenes, taxol",[3]; [14],17.2 mg/L
CC/C=C\CC1C(=NC#N)CCC1CC(=O)OC (centres unmarked) [Example 38],yield of cultured cells,[3]; [7],14.3 g/L
same,"yield of taxane-type diterpenes, baccatin III",[3]; [7],14.5 mg/L
same,"yield of taxane-type diterpenes, cephalomannine",[3]; [7],5.0 mg/L
same,"yield of taxane-type diterpenes, taxol",[3]; [7],82.9 mg/L
cyclofructan [Example 25],yield of baccatin III,[2]; [8],51.4 mg/L
same,yield of cephalomannine,[2]; [8],9.1 mg/L
same,yield of cultured cells,[2]; [8],17.9 g/L
same,yield of taxol,[2]; [8],48.9 mg/L
CC/C=C\CC1/C(=N\NC=O)CCC1CC(=O)OC (centres unmarked) [Example 36],yield of cultured cells,[3]; [7],17.2 g/L
same,"yield of taxane-type diterpenes, baccatin III",[3]; [7],18.5 mg/L
same,"yield of taxane-type diterpenes, cephalomannine",[3]; [7],6.2 mg/L
same,"yield of taxane-type diterpenes, taxol",[3]; [7],79.5 mg/L
"CC[C@H]1C=C(C(=O)OC)[C@H]2CCC(=O)[C@H]2C1 [Example 11, methyl ester of coronafacic acid]",yield of baccatin III,[1]; [15],8.4 mg/L
same,yield of cephalomannine,[1]; [15],5.1 mg/L
same,yield of cultured cells,[1]; [15],19.2 g/L
CC/C=C\CC1C(=NN)CCC1CC(=O)OC (centres unmarked) [Example 34],yield of cultured cells,[3]; [7],16.7 g/L
same,"yield of taxane-type diterpenes, baccatin III",[3]; [7],16.5 mg/L
same,"yield of taxane-type diterpenes, cephalomannine",[3]; [7],6.6 mg/L
same,"yield of taxane-type diterpenes, taxol",[3]; [7],55.0 mg/L
CC/C=C\CC1C(=NNS(C)(=O)=O)CCC1CC(=O)OC (centres unmarked) [Example 37],yield of cultured cells,[3]; [7],17.1 g/L
same,"yield of taxane-type diterpenes, baccatin III",[3]; [7],15.3 mg/L
same,"yield of taxane-type diterpenes, cephalomannine",[3]; [7],5.9 mg/L
same,"yield of taxane-type diterpenes, taxol",[3]; [7],73.3 mg/L
"CCC1C=C(C(=O)O)C2CCC(=O)C2C1 (centres unmarked) [Example 10, coronafacic acid]",yield of baccatin III,[1]; [15],12.4 mg/L
same,yield of cephalomannine,[1]; [15],3.0 mg/L
same,yield of cultured cells,[1]; [15],18.6 g/L
same,yield of taxol,[1]; [15],6.2 mg/L
CC/C=C\CC1/C(=N\NC(N)=O)CCC1CC(=O)OC (centres unmarked) [Example 35],yield of cultured cells,[3]; [7],15.3 g/L
same,"yield of taxane-type diterpenes, baccatin III",[3]; [7],17.2 mg/L
same,"yield of taxane-type diterpenes, cephalomannine",[3]; [7],5.0 mg/L
same,"yield of taxane-type diterpenes, taxol",[3]; [7],56.3 mg/L
"OC[C@H]1O[C@@H]2O[C@H]3[C@H](O)[C@@H](O)[C@@H](O[C@H]4[C@H](O)[C@@H](O)[C@@H](O[C@H]5[C@H](O)[C@@H](O)[C@@H](O[C@H]6[C@H](O)[C@@H](O)[C@@H](O[C@H]7[C@H](O)[C@@H](O)[C@@H](O[C@H]1[C@H](O)[C@H]2O)O[C@@H]7CO)O[C@@H]6CO)O[C@@H]5CO)O[C@@H]4CO)O[C@@H]3CO [Example 23, α-cyclodextrin]",yield of baccatin III,[2]; [8],55.7 mg/L
same,yield of cephalomannine,[2]; [8],7.5 mg/L
same,yield of cultured cells,[2]; [8],16.6 g/L
same,yield of taxol,[2]; [8],46.0 mg/L
